Positions of bridges follow the written chain, without caps; N, C: chain ends. No end group written: not given here.
How the values were obtained:
Neuro-2a cells = assay: Cytoprotection against ATP-induced cell death (MTT assay); assay type: cell-based, mouse; conditions: long-time application of ATP (4 mM, 48 h)
Experimental: Neuro-2a neuroblastoma cells (ATCC® CCL-131™) were obtained from American Type Culture Collection (Manassas, VA, USA). The cells were cultivated in DMEM medium (BioloT, St. Petersburg, Russia) supplemented with 10% of fetal bovine serum (BioloT, St. Petersburg, Russia) and 1% penicillin/streptomycin (BioloT, St. Petersburg, Russia) at 37 °C and 5% CO2. Initially, cells were incubated in cultural flasks until sub-confluent (~80%). For testing, Neuro-2a cells were seeded in 96-well plates and experiments were started after 24 h.
The cytoprotective effect of peptides was assessed in Neuro-2a cells using the MTT assay. In brief, an aliquot (180μL) of cell suspension with a nominal cell density of 3 × 10^4 cells/well was dispensed into 96-well plates. The cells were incubated for 24 h in a humidified atmosphere containing 5% CO2 to allow cell attachment. At the end of the preincubation period, ATP (Sigma-Aldrich, St. Louis, MO, USA) was added to the cells at a concentration of 4 mM. Studied peptides were added to the cells at concentrations of 0.1, 1.0 or 10.0 μM for 1h prior to the addition of ATP. After incubation for 48 h at 37 °C cell viability was detected using the MTT as described previously. The standard P2X7 inhibitor, A438079 (Sigma-Aldrich, St. Louis, MO, USA), at a concentration of 10 μM was used as a positive control.
All data were obtained in three independent replicates and calculated values were expressed as mean ± standard error of the mean (SEM). The Student’s t-test was performed using SigmaPlot 14.0 (Systat Software Inc., San Jose, CA, USA) to determine statistical significance.

[1] = target: T1, hP2X7 (47–334 a.a., extracellular domain, 36.8 kDa) (Homo sapiens, UniProt Q99572); assay: Surface plasmon resonance (Biacore 3000); assay type: binding
T1 construct: hP2X7 (47–334 a.a., extracellular domain, 36.8 kDa); purchased Abbexa LTD, Cambridge, UK abx167020
T1 sequence (Q99572 47-334): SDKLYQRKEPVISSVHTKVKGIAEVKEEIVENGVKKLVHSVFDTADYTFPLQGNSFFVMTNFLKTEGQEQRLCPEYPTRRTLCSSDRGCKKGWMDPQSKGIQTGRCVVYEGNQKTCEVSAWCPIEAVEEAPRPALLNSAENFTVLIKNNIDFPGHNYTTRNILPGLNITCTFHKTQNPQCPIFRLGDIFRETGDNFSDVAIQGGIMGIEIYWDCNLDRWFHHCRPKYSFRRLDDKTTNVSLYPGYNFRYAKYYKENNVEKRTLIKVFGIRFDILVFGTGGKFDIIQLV
Experimental: SPR analysis was performed at 25 °C using a Biacore® 3000 optical biosensor (GE Healthcare, Chicago, IL, USA) and CM5 sensor chips. HBS-N (10 mM HEPES, 150 mM NaCl, pH 7.4) (Cytiva, Chicago, IL, USA) was used as a working buffer for the immobilization of hP2X7 (47–334 a.a., extracellular domain, 36.8 kDa) (abx167020 Abbexa LTD, Cambridge, UK). The carboxyl groups of the dextran biosensor chip were activated for 5 min by introducing a 1:1 mixture of 0.2 M 1-ethyl-3-(3-dimethylaminopropyl)carbodiimide hydrochloride (EDC) and 0.05 M N-hydroxysuccinimide (NHS) at a rate of 5 µL/min followed by a 1 min wash with HBS-N buffer at the same flow rate. Next, hP2X7 (15 μg/mL) in 10 mM sodium acetate (pH 5.0) was injected into the working channel of the biosensor for 10 min at a flow rate of 5 μL/min. The final level of immobilization was 12300 RU (12.3 ng of protein). The control channel without immobilized P2X7R was used to correct the effects of the nonspecific binding of analytes to the chip surface.
Lyophilized peptides were prepared as 100 μM stock solutions in HBS-N buffer. Experimental peptide samples were prepared in the range of 5–100 μM. The samples were injected through the channels of the biosensor (working and reference) at a flow rate of 10 μL/min for 6 min. The dissociation of the formed peptide/P2X7 complexes was recorded for at least 6 min from the moment of injection at the same flow rate after the injection of the sample. After each cycle of the biosensor, the bound analyte was removed by double injection of the regenerating solution (2 M NaCl, 1% CHAPS) at a flow rate of 30 μL/min for 30 s.
SPR sensorgrams were processed in Biacore 3000 Evaluation Software v.1.0 (GE Healthcare, Chicago, IL, USA) and BIAevaluation Software v. 4.1.1 (GE Healthcare, Chicago, IL, USA) using “1:1 binding (Langmuir)” and “two-state binding (conformational change)” data processing models.
The 1:1 (Langmuir) binding model is a 1:1 interaction model between a compound (C) and an immobilized protein (P) and is equivalent to the Langmuir isotherm for surface adsorption: C + P ↔ CP.
The two-state binding (conformational change) model describes the 1:1 binding of a compound (C) to an immobilized protein (P) followed by a conformational change in the complex (CP ↔ CP*). It is assumed that the conformationally changed complex can dissociate only by the reverse conformational change: C + P ↔ CP ↔ CP*. The final kinetic parameters were obtained from the models that best agree with the experimental curves for the minimum of the obtained value of chi2. The equations describing the models used are as follows: • (1) 1:1 (Langmuir) binding: Kd = koff/kon, where Kd is the equilibrium dissociation constant, koff is the dissociation rate constant, kon is the association rate constant. • (2) Reaction of two states (with conformational change): Kd = koff1/kon1 × (1 + kon2/koff2) − 1, where Kd is the equilibrium dissociation constant, koff1 is the dissociation rate constant, kon1 is the association rate constant, kon2 is the direct association rate constant for the CP ↔ transition CP*, koff2 is the inverse dissociation rate constant for the CP ↔ CP* transition.
The model describing the interaction was chosen according to the lowest chi2 parameter’s value. Chi2 is a measure of the average squared residual between the experimental data and the fitted curve.

[2] = model: binding with two states (CP ↔ CP* transition), 25 °C, HBS-N pH 7.4, average ± SD, n = 3
[3] = model: binding with two states, 25 °C, HBS-N pH 7.4, average ± SD, n = 3

## RGICSEPKVVGPCKAGLRRFYYDSETGECKPFIYGGCKGNKNNFETLHACRGICRA (disulfide 4-54, 13-37, 29-50 (inferred)) [HCRG1]
Neuro-2a cells
  protection from ATP-induced death: partially protected neuroblastoma cells from ATP-induced death
[1]; SPR, peptides 5–100 μM
  affinity to P2X7: highest affinity
[1]; [2]
  koff2: (1.5 ± 0.20) × 10^−3 c^−1
  kon2: (8.5 ± 1.0) × 10^−3 mole^−1c^−1
[1]; [3]
  koff1: (4.37 ± 0.57) × 10^−2 c^−1
  kon1: (9.20 ± 1.10) × 10^2 mole^−1c^−1
[1]; model: binding with two states, 25 °C, HBS-N pH 7.4, n = 3
  Kd: 7.13 µM

Source: publication PMC10053369, “Recombinant Analogs of Sea Anemone Kunitz-Type Peptides Influence P2X7 Receptor Activity in Neuro-2a Cells” (Marine Drugs, 2023)
